Assay results published in publication PMC12682947, “Identification of New KCNT1‐Epilepsy Drugs by In Silico, Cell, and Drosophila Modeling” (Annals of Neurology, 2025).

Experiments:
[1] = system: Drosophila epilepsy model; parameters: method as in PMID 39720593; conditions: cited from earlier work
[2] = system: Drosophila mutant KCNT1 lines (G288S, R398Q, R928C); test: Bang-sensitive behavioral seizure assay, statements for all three Drosophila mutant KCNT1 lines; type: in vivo, Drosophila melanogaster; conditions: drug in food, 1 nM to 1 μM, each of the three mutant lines
Text: The Drosophila melanogaster lines carrying the WT human KCNT1 transgene (NM_020822_3) or KCNT1 mutant G288S, R398Q or R928C transgene placed downstream of the yeast UAS promoter, have been described previously.[11] WT or mutant human UAS‐KCNT1 flies were crossed to flies expressing the GAL4 transcriptional activator under the control of the GAD1 promoter (GABAergic driver, Bloomington stock number 51630 P2) to drive expression of KCNT1 in GABAergic neurons, involved in neuronal inhibition.[11]
The bang‐sensitive behavioral assay (also known as the banging assay) was used to test for the presence of a seizure phenotype in Drosophila.[11], [30] Experiments were performed and scored, as previously described,[11] with a minimum of 50 Drosophila tested for each genotype and drug concentration.
Four drugs were selected for in vivo analysis to determine their effects on the seizure phenotypes in transgenic Drosophila lines with human mutant KCNT1 channels. Bepridil, a nonselective KCNT1 inhibitor was included for comparison. Drosophila food with and without drugs was prepared as previously described.[11] All chemicals were obtained from Sigma‐Aldrich (Gillingham, UK) apart from antrafenine hydrochloride (Toronto Research Chemicals, Canada) and regorafenib (USP, Germany).
Drosophila crosses were set up, and the resulting embryos were collected, as previously described.[11] A range of concentrations of each drug dissolved in Drosophila food, between 0.001 μM and 1 μM, were used in the experiments. Multiple replicates were performed for each dosage of the drugs and controls. Controls were vehicle controlled (VC), which was the normal food with just the solvent ethanol present (1 μl/1 ml) in the Drosophila food, and normal food (NF) control where no drug or solvent (ethanol) was added in the Drosophila food.
In all experiments, experimenters were not blinded to variants or treatments, nor were samples randomly assigned to groups. Sample sizes were not calculated in advance and no data were excluded from the analysis. Data were analyzed using GraphPad Prism 9 software (San Diego, CA, USA). All values are reported as mean ± standard error of the mean (SEM). All data passed normality and lognormality Shapiro–Wilk tests, determined by GraphPad Prism 9. In the experiments analyzing the effects of drugs in Drosophila, statistical significance of differences between groups was determined using Brown‐Forsythe and Welch's analysis of variance (ANOVA) tests (Supplementary Table S3), assuming non‐equal SDs, followed by Dunnett's multiple comparisons tests (GraphPad Prism 9). The results of the Dunnett's multiple comparisons tests are shown in Supplementary Table S4, where “N” represents independent trials using independent fly crosses, with the total number of flies for each condition shown in brackets.

[3] = system: Drosophila mutant KCNT1 lines (G288S, R398Q, R928C); parameters: method as in PMID 38336906; conditions: Drosophila models of KCNT1 epilepsy; cited from earlier work

SMILES | reduction of seizures [1] | other results
O=C1NC(=O)C(c2ccccc2)(c2ccccc2)N1 [Phenytoin] | approximately 30% | –
CC(C)COCC(CN(Cc1ccccc1)c1ccccc1)N1CCCC1 (centres unmarked) [bepridil] | – | effect on seizure activity (in words) [2]: exacerbate the seizure phenotype
Nc1nnc(-c2cccc(Cl)c2Cl)c(N)n1 [lamotrigine] | approximately 30% | –
C=C[C@H]1C[N@@]2CC[C@H]1C[C@@H]2[C@@H](O)c1ccnc2ccc(OC)cc12 [quinidine] | – | effect on seizure phenotype (in words) [3]: exacerbate the seizure phenotype
CCCC(CCC)C(=O)O [valproate] | approximately 30% | –
